Measured values: US7179819B2, “VLA-4 inhibitor compounds” (Daiichi Pharmaceutical Co., Ltd., priority 1999, dated 2007)

For Cc1ccccc1NC(=O)Nc1ccc(CC(=O)N2CCC[C@H]2COc2ccc(C(=O)O)cc2)cc1C [Compound 83, 4-[1-[3-methyl-4-[N′-(2-methylphenyl)ureido]phenylacetyl]-(2S)-pyrrolidinylmethoxy]benzoic acid], which melting point is on record?
The melting point was 191 to 193 °C.

With O=C(Nc1ccc(CC(=O)N2C[C@@H](F)C[C@H]2COc2ccc(C(=O)O)cc2)cc1)Nc1c(Cl)cccc1Cl [Compound 87, 4-[1-[4-[N′-(2,6-dichlorophenyl)ureido]phenylacetyl]-(4S)-fluoro-(2S)-pyrrolidinyl]methoxy benzoic acid] as the compound, how does the melting point read?
Its melting point is 168 to 172 °C (dec.).

With COc1cc(CC(=O)N2C[C@@H](NS(=O)(=O)c3cccc4c(N(C)C)cccc34)C[C@H]2COc2ccc(C(=O)O)cc2)ccc1NC(=O)Nc1ccccc1Br [Example 155, 4-[1-[4-[N′-(2-bromophenyl)ureido]-3-methoxyphenylacetyl]-4dansylamino-(2S)-pyrrolidinyl]methoxybenzoic acid] as the compound, how does the melting point read?
Its melting point is 138 to 141 °C.

With O=C(Nc1ccccc1)Nc1ccc(CC(=O)N2C[C@@H](F)C[C@H]2COc2ccc(C(=O)O)cc2)cc1 [Compound 72, 4-[(4S)-fluoro-1-[4-(N′-phenylureido)phenylacetyl]-(2S)-pyrrolidinylmethoxy]benzoic acid] as the compound, how does the melting point read?
The melting point was 169 to 171 °C.

Which melting point does the source give for Cc1ccccc1NC(=O)Nc1ccc(CC(=O)N2CCCC2/C=C/c2ccc(C(=O)O)cc2)cc1 (centres unmarked) [Compound 6, (E)-4-[2-[1-[4-[N′-(2-methylphenyl)ureido]phenylacetyl]-2-pyrrolidinyl]ethenyl]benzoic acid] here?
The melting point was 165 to 168 °C.

For COc1cc(CC(=O)N2CCC[C@H]2COC2CCC(C(=O)O)CC2)ccc1NC(=O)Nc1ccccc1Cl (stereo partly drawn) [Compound 175, 4-[[1-[4-[N′-(2-chlorophenyl)ureido]-3-methoxylphenylacetyl]-(2S)-pyrrolidinyl]methoxy]cyclohexanecarboxylic acid], which melting point is on record?
The melting point was 111 to 115 °C.

For COc1cc(CC(=O)N[C@H](C)COc2ccc(C(=O)O)cc2OC)ccc1NC(=O)Nc1ccccc1C [Compound 260, (R)-3-methoxy-4-[2-[3-methoxy-4-[N′-(2-methylphenyl)ureido]phenylacetylamino]-1-propoxy]benzoic acid], which melting point is on record?
Its melting point is 168 to 169 °C.

With COc1cc(CC(=O)N2CCC[C@H]2C(=O)NC2CCC(C(=O)O)CC2)ccc1NC(=O)Nc1ccccc1C (stereo in doubt) [Compound 180, 4-[[1-[3-methoxy-4-[N′-(2-methylphenyl)ureido]phenylacetyl]-2-pyrrolidinyl]carbonylamino]cyclohexanecarboxylic acid] as the compound, how does the melting point read?
The melting point was 136 to 142 °C.

For COc1cc(CC(=O)N(CCOc2ccc(C(=O)O)cc2OC)CCN2CCN(C)CC2)ccc1NC(=O)Nc1ccccc1C [Compound 263], which melting point is on record?
The melting point was 155 to 160 °C.

With COc1cc(CC(=O)N2C[C@@H](O)C[C@H]2COc2ccc(C(=O)O)cc2)ccc1NC(=O)Nc1ccccc1Cl [Compound 107, 4-[1-[4-[N′-(2-chlorophenyl)ureido]-3-methoxyphenylacetyl]-(4S)-hydroxy-(2S)-pyrrolidinyl]methoxybenzoic acid] as the compound, how does the melting point read?
The melting point was 138 to 142 °C (dec.).

For COc1cc(CC(=O)N(C)CCOc2ccc(C(=O)O)cc2N2CCCCC2)ccc1NC(=O)Nc1ccccc1F [Compound 289, 3-(1-piperidinyl)-4-[[2-[3-methoxy-4-[N′-(2-fluorophenyl)ureido]phenylacetyl]methylamino]ethoxy]benzoic acid], which melting point is on record?
Its melting point is 125 to 130 °C.

With COc1cc(CC(=O)N(C)CCN(C)c2ccc(C(=O)O)cc2)ccc1NC(=O)Nc1ccccc1C [Compound 286, 4-[[2-[3-methoxy-4-[N′-(2-methylphenyl)ureido]phenylacetyl]methylamino]ethyl]methylamino benzoic acid] as the compound, how does the melting point read?
The melting point was 125 to 130 °C.

For COc1cc(CC(=O)N2CCC[C@H]2COc2ccc(C(=O)O)cc2OC)ccc1NC(=O)Nc1ccccc1C [Compound 27], which melting point is on record?
The melting point was 132 to 135 °C.

With COc1cc(CC(=O)N2CCC[C@H]2COc2ccc(C(=O)O)cc2)ccc1NC(=O)Nc1ccccc1Br [Compound 59, 4-[1-[4-[N′-(2-bromophenyl)ureido]-3-methoxylphenylacetyl]-(2S)-pyrrolidinyl]methoxybenzoic acid] as the compound, how does the melting point read?
The melting point was 120 to 125 °C.

With COc1cc(CC(=O)N2CCC[C@H]2COC2CCC(C(=O)O)CC2)ccc1NC(=O)Nc1ccccc1Br (stereo partly drawn) [Compound 176, 4-[1-[4-[N′-(2-bromophenyl)ureido]-3-methoxylphenylacetyl]-(2S)-pyrrolidinyl]methoxy cyclohexanecarboxilic acid] as the compound, how does the melting point read?
Its melting point is 108 to 111 °C.

Which melting point does the source give for COc1cc(CC(=O)N[C@@H](C)COc2ccc(C(=O)O)cc2)ccc1NC(=O)Nc1ccccc1Br [Compound 294, (S)-4-[2-[3-methoxy-4-[N′-(2-bromophenyl)ureido]phenylacetylamino]-1-propoxy]benzoic acid] here?
The melting point was 202 to 205 °C.

Which melting point does the source give for Cc1cc(CC(=O)N2CCC[C@H]2COc2ccc(C(=O)O)cc2)ccc1NC(=O)Nc1ccccc1Br [Compound 82, 4-[1-[4-[N′-(2-bromophenyl)ureido]-3-methylphenylacetyl]-(2S)-pyrrolidinyl]methoxybenzoic acid] here?
The melting point was 125 to 130 °C.

Which melting point does the source give for COc1cc(CC(=O)N2CCC[C@H]2COc2ccc(C(=O)O)cn2)ccc1NC(=O)Nc1ccccc1C (stereo in doubt) [Compound 40, 2-[[1-[3-methoxy-4-[N′-(2-methylphenyl)ureido]phenylacetyl]-2-pyrrolidinyl]methoxy]pyridine-5-carboxylic acid] here?
The melting point was 125 to 128 °C.

Which melting point does the source give for COc1cc(CC(=O)N2C[C@@H](NS(=O)(=O)c3c(C)cc(C)cc3C)C[C@H]2COc2ccc(C(=O)O)cc2)ccc1NC(=O)Nc1ccccc1Br [Compound 162] here?
The melting point was 130 to 132 °C.

With CN[C@@H]1C[C@@H](COc2ccc(C(=O)O)cc2)N(C(=O)Cc2ccc(NC(=O)Nc3ccccc3C)c(OC)c2)C1 [Compound 153, 4-[trans-1-[3-methoxy-4-[N′-(2-methylphenyl)ureido]phenylacetyl]4-methylamino-(2S)-pyrrolidinyl]methoxybenzoic acid] as the compound, how does the melting point read?
Its melting point is 162 to 164 °C.

For COc1cc(CC(=O)N2CC(F)(F)C[C@H]2COc2ccc(C(=O)O)cc2)ccc1NC(=O)Nc1ccccc1C (stereo in doubt) [Compound 139, 4-[4,4-difluoro-1-[3-methoxy-4-[N′-(2-methylphenyl)ureido]phenylacetyl]-2-pyrrolidinylmethoxy]benzoic acid], which melting point is on record?
The melting point was 135 to 140 °C.

With COc1cc(CC(=O)N2CC[C@H](Oc3ccc(C(=O)O)cc3)C2)ccc1NC(=O)Nc1ccccc1C [Compound 182, 4-[1-[3-methoxy-4-[N′-(2-methylphenyl)ureido]phenylacetyl]-(3S)-pyrrolidinyloxy]benzoic acid] as the compound, how does the melting point read?
Its melting point is 131 to 135 °C.

Which melting point does the source give for COc1cc(CC(=O)N2C[C@@H](Cl)C[C@H]2COc2ccc(C(=O)O)cc2)ccc1NC(=O)Nc1ccccc1Br [Compound 103, 4-[1-[4-[N′-(2-bromophenyl)ureido]-3-methoxyphenylacetyl]-(4S)-chloro-(2S)-pyrrolidinyl]methoxybenzoic acid] here?
Its melting point is 127 to 132 °C.

With COc1cc(CC(=O)N2C[C@H](O)C[C@H]2COc2ccc(C(=O)O)cc2)ccc1NC(=O)Nc1ccccc1Cl [Compound 109] as the compound, how does the melting point read?
The melting point was 137 to 142 °C.

For Cc1cc(CC(=O)N2C[C@@H](F)C[C@H]2COc2ccc(C(=O)O)cc2)ccc1NC(=O)Nc1ccccc1 [Compound 73, 4-[(4S)-fluoro-1-[3-methyl-4-(N′-phenylureido)phenylacetyl]-(2S)-pyrrolidinylmethoxy]benzoic acid], which melting point is on record?
Its melting point is 130 to 135 °C.

For COc1cc(CC(=O)N2CC[C@H](Oc3ccc(C(=O)O)cc3)C2)ccc1NC(=O)Nc1ccccc1Br [Compound 184, 4-[1-[4-[N′-(2-bromophenyl)ureido]-3-methoxyphenylacetyl]-(3S)-pyrrolidinyloxy]benzoic acid], which melting point is on record?
Its melting point is 173 to 175 °C.

Which melting point does the source give for COc1cc(CC(=O)N2CCC[C@H]2COc2ccc(C(=O)O)cc2F)ccc1NC(=O)Nc1ccccc1C (stereo in doubt) [Compound 38, 3-fluoro-4-[[1-[3-methoxy-4-[N′-(2-methylphenyl)ureido]phenylacetyl]-2-pyrrolidinyl]methoxy]benzoic acid] here?
Its melting point is 123 to 126 °C.

Which melting point does the source give for COc1cc(CC(=O)N2CSC[C@H]2COc2ccc(C(=O)O)cc2)ccc1NC(=O)Nc1ccccc1C (stereo in doubt) [Compound 168, 4-[3-[3-methoxy-4-[N′-(2-methylphenyl)ureido]phenyl]acetyl-4-thiazolidinyl]methoxybenzoic acid] here?
The melting point was 125 to 128 °C.

With COc1cc(CC(=O)N(C)CCOc2ccc(C(=O)O)cc2NC(C)C)ccc1NC(=O)Nc1ccccc1C [Compound 285, 3-isopropylamino-4-[[2-[3-methoxy-4-[′-(2-methylphenyl)ureido]phenylacetyl]methylamino]ethoxy]benzoic acid] as the compound, how does the melting point read?
The melting point was 130 to 135 °C.

Which melting point does the source give for COc1cc(CC(=O)N(C)[C@@H](C)COc2ccc(C(=O)O)cc2Cl)ccc1NC(=O)Nc1ccccc1C [Compound 284] here?
Its melting point is 125 to 130 °C.

For COc1cc(CC(=O)N2C[C@@H](O)C[C@H]2COc2ccc(C(=O)O)cc2)ccc1NC(=O)Nc1ccccc1C [Compound 106], which melting point is on record?
The melting point was 148 to 152 °C (dec.).

For COc1cc(CC(=O)N[C@@H](C)COc2ccc(C(=O)O)cc2N)ccc1NC(=O)Nc1ccccc1C [Compound 293, (S)-3-amino-4-[2-[3-methoxy-4-[N′-(2-methylphenyl)ureido]phenylacetylamino]-1-propoxy]benzoic acid], which melting point is on record?
Its melting point is 200 to 204 °C.

Which melting point does the source give for COc1cc(CC(=O)N2CCC[C@H]2C(=O)NC2CCC(C(=O)O)CC2)ccc1NC(=O)Nc1ccccc1Cl (stereo in doubt) [Compound 181, 4-[[1-[4-[N′-(2-chlorophenyl)ureido]-3-methoxylphenylacetyl]-2-pyrrolidinyl]carbonylamino]cyclohexanecarboxylic acid] here?
Its melting point is 135 to 140 °C.

For COc1cc(CC(=O)N2C[C@@H](N(C)C)C[C@H]2COc2ccc(C(=O)O)cc2)ccc1NC(=O)Nc1ccccc1C, which melting point is on record?
Its melting point is 147 to 150 °C.

Which melting point does the source give for Cc1ccccc1NC(=O)Nc1ccc(CC(=O)N2CCCC2CCc2ccc(C(=O)O)cc2)cc1 (centres unmarked) [Compound 7, 4-[2-[1-[4-[N′-(2-methylphenyl)ureido]phenylacetyl]-2-pyrrolindinyl]ethyl]benzoic acid] here?
The melting point was 180 to 190 °C.
